Experimental data as given in patent publication US9486536B2 (Immunomedics, Inc., priority 2013, dated 2016).

Assays:
moderately active SLE = test: open-label study in SLE patients
Procedure: An open-label, single-center study of patients with moderately active SLE (total British Isles Lupus Assessment Group (BILAG) score 6 to 12) is conducted. Patients receive dosages of epratuzumab-P2PDox (conjugated at a drug/antibody ratio of 3.5) of 10, 20, 40 and 60 mg conjugate i.v. every other week for 3 injections, repeated 4 months later. Evaluations include safety, SLE activity (BILAG), blood levels of B and T cells, and human anti-epratuzumab antibody (HAHA) titers.

[1] = tested on: Daudi, Raji, Ramos and JVM-3 hematopoietic tumor lines; test: cytotoxicity of P2PDox-mAb conjugates to target cells; assay type: cell-based; settings: not shown
Excerpt: The cytotoxicity of P2PDox-mAb conjugates to target cells was examined. hRS7-P2PDox and hMN-15-P2PDox were cytotoxic to MDA-MB-468, AG S, NCI-N87 and Capan-1 solid tumor cell lines (not shown). hMN-14-P2PDox was cytotoxic to Capan-1, BxPC-3 and AsPC-1 human pancreatic tumor lines and AGS, NCI-N87 and LS147T human gastric and colonic tumor lines (not shown). hLL2-P2PDOx was cytotoxic to Daudi, Raji, Ramos and JVM-3 hematopoietic tumor lines (not shown). IC50 values for the conjugates were in the nanomolar concentration range (not shown).

[2] = tested on: Non-Hodgkin's Lymphoma (NHL); test: treatment of NHL patients; assay type: in vivo, human
Procedure: A P2PDox-epratuzumab ADC is prepared as described in Examples 1 and 3 above. Seventeen patients with previously untreated or relapsed NHL receive 4 doses of 70, 100 or 150 mg P2PDox-epratuzumab injected i.v. every two weeks. Responses are assessed by CT scans, with other evaluations including adverse event, B-cell blood levels, serum epratuzumab levels and human anti-epratuzumab (HAHA) titers.

CD22 = CD22 (Homo sapiens, UniProt P20273); test: antibody binding to target antigen after conjugation
[3] = relative to doxorubicin; cited from earlier work
[4] = 4 doses of 70, 100 or 150 mg i.v. every two weeks, 17 patients

Q: Which “decrease of total BILAG scores” value (moderately active SLE; all patients, 10, 20, 40 and 60 mg i.v. every other week for 3 injections, drug/antibody ratio 3.5) does the source give for hLL2-P2PDox here?
A: at least 50%

Q: And the “patients with improvement in at least one BILAG B- or C-level disease activity” value (moderately active SLE; at 6, 10 and 18 weeks)?
A: 93%

Q: And the “average decrease of B-cell levels” value (moderately active SLE; at 18 weeks)?
A: 35%

Q: And the “patients with BILAG decreases continuing to at least 18 weeks” value (moderately active SLE; human, in vivo)?
A: 92%

Q: And the tolerability (moderately active SLE; human, in vivo)?
A: well tolerated

Q: And the cytotoxicity [1]?
A: cytotoxic

Q: And the “complete response/complete response unconfirmed rate” value [2, 4]?
A: 24%

Q: What about the objective response rate [2, 4] of the same molecule?
A: 47%

Q: What about the “transient B-cell depletion” value ([2]; all dosage levels) of the same molecule?
A: up to 25%

Q: And the “human anti-epratuzumab antibody (HAHA) in serum samples” value ([2]; human, in vivo)?
A: negative

Q: And the “objective responses continuing for 30 weeks or more” value ([2]; human, in vivo)?
A: Four of the eight

Q: What about the safety issues ([2]; reversible after interrupting therapy) of the same molecule?
A: neutropenia up to Grade 3

Q: What about the “effect of conjugation on antibody binding” value (CD22) of the same molecule?
A: lack of effect of conjugation on antibody binding to target antigen

Q: With `COc1cccc2c1C(=O)c1c(O)c3c(c(O)c1C2=O)C[C@@](O)(C(=O)CO)C[C@@H]3O[C@H]1C[C@H](N2C=CCC2)[C@H](O)[C@H](C)O1` [2-pyrrolinodoxorubicin] as the molecule, how does the “cytotoxicity, times that of doxorubicin” value [3] read?
A: 500-1000 times
